For experiment [1], the target named is T1, PDGFR beta (Homo sapiens, UniProt P09619).
T1 construct: endogenous in cells; host or cells: HS27 human fibroblast cell line
Description: Phospho PDGFR LICOR Cell Assay (Example B). As to conditions: averaged IC50; PDGFR beta phosphorylation in HS27 human fibroblast cell line, PDGF-BB stimulation 10 minutes, normalized to total ERK. It is filed as cell-based. A digest of the protocol:
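HS27 human fibroblasts pretreated 1 h with compound, then stimulated 10 min with PDGF-BB. Fixed, permeabilized cells immunostained for phospho-PDGFRβ and total ERK and read by two-colour infrared fluorescence, with phospho signal normalized to ERK. IC50 = 50% of control from 4-parameter logistic fit.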

In experiment [2] the target is T1, PDGFR beta. Description: Phospho PDGFR Cell Assay, sandwich ELISA (Example A). In kind it is cell-based. As to conditions: averaged IC50, PDGFR beta phosphorylation in HS27 human fibroblast cell line, PDGF-BB stimulation 5 minutes. The gist of the method: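 HS27 human fibroblasts were pretreated with compound for 1 h, stimulated with PDGF-BB for 5 min, then lysed. Phospho-PDGFR beta was measured by sandwich ELISA, and IC50 was taken as the concentration giving 50 percent of control from a 4-parameter logistic fit.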

For another experiment, the target named is T2, cFMS (Homo sapiens, UniProt P07333).
T2 construct: THP-1 cells (human acute monocytic leukemia cell line) were serum-starved for 4 hours; endogenous in cells; host or cells: THP-1 cells (human acute monocytic leukemia cell line)
Description: cFMS Cell-Based Assay (Example C). As to conditions: averaged IC50; phospho-cFMS in THP-1 cells stimulated with 250 ng/mL recombinant human MCSF; read-out: cFMS Cell ELISA IC50. A digest of the protocol: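 THP-1 cells serum-starved 4 h, then treated 1 h with compound (9-point, 3-fold series, top dose typically 5,000 nM) at 37 °C, then stimulated 1 min with 250 ng/mL recombinant human MCSF. Phospho-cFMS in lysates quantified by capture ELISA against a purified phospho-protein standard curve. IC50 at 50 percent of control, 4-parameter logistic fit.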
(In general: An ELISA detects its analyte on a solid surface through an enzyme-linked reagent.)

Another experiment addresses T3, c-KIT (Homo sapiens, UniProt P10721).
T3 construct: M-07e cells (human acute megakaryoblastic leukemia cell line) were serum-starved for 4 hours; endogenous in cells; host or cells: M-07e cells (human acute megakaryoblastic leukemia cell line)
Description: c-KIT Cell-Based Assay (Example D). As to conditions: averaged IC50; phospho-c-KIT in M-07e cells stimulated with 150 ng/ml recombinant human SCF; read-out: cKIT Cell ELISA IC50. The gist of the method: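 M-07e cells serum-starved 4 h, treated 1 h with compound (9-point, 3-fold dilutions, top dose typically 5,000 nM) at 37° C, then stimulated 4 min with 150 ng/ml SCF. Phospho-c-KIT in lysates quantified by ELISA against a standard curve; IC50 from 4-parameter logistic fit as 50% of control.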

The record followed here is patent US10669269B2, “Substituted N-(1H-indazol-4-yl)imidazo[1,2-a]pyridine-3-carboxamide compounds as type III receptor tyrosine kinase inhibitors” (ARRAY BIOPHARMA INC., priority 2010, dated 2020).

Usually IC50 stands for the concentration needed to halve the response being measured.

T3 sequence (P10721 26-976): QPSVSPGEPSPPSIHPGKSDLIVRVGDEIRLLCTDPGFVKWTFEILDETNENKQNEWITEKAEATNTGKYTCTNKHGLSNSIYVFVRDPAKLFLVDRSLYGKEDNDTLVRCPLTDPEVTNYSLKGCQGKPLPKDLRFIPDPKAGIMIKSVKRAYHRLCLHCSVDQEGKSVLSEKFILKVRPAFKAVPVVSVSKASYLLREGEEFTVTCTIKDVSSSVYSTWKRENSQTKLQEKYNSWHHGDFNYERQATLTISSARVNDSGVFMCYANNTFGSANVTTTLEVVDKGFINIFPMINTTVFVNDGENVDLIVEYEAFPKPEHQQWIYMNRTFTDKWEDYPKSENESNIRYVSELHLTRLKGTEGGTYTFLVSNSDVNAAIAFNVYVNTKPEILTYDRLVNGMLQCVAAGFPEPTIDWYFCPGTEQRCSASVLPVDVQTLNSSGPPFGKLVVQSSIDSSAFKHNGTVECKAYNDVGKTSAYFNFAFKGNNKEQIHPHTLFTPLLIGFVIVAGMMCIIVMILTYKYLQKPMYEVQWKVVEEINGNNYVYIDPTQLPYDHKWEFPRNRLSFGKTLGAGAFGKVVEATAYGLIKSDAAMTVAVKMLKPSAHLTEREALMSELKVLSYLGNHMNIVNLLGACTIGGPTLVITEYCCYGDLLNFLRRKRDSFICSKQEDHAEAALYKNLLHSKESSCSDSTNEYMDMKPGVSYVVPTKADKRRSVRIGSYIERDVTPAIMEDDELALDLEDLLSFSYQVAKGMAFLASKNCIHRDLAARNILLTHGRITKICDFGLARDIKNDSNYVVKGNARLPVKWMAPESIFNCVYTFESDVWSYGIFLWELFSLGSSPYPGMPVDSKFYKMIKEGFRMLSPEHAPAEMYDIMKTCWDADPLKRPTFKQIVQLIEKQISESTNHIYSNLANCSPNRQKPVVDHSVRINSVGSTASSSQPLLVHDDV
T1 sequence (P09619 33-1106): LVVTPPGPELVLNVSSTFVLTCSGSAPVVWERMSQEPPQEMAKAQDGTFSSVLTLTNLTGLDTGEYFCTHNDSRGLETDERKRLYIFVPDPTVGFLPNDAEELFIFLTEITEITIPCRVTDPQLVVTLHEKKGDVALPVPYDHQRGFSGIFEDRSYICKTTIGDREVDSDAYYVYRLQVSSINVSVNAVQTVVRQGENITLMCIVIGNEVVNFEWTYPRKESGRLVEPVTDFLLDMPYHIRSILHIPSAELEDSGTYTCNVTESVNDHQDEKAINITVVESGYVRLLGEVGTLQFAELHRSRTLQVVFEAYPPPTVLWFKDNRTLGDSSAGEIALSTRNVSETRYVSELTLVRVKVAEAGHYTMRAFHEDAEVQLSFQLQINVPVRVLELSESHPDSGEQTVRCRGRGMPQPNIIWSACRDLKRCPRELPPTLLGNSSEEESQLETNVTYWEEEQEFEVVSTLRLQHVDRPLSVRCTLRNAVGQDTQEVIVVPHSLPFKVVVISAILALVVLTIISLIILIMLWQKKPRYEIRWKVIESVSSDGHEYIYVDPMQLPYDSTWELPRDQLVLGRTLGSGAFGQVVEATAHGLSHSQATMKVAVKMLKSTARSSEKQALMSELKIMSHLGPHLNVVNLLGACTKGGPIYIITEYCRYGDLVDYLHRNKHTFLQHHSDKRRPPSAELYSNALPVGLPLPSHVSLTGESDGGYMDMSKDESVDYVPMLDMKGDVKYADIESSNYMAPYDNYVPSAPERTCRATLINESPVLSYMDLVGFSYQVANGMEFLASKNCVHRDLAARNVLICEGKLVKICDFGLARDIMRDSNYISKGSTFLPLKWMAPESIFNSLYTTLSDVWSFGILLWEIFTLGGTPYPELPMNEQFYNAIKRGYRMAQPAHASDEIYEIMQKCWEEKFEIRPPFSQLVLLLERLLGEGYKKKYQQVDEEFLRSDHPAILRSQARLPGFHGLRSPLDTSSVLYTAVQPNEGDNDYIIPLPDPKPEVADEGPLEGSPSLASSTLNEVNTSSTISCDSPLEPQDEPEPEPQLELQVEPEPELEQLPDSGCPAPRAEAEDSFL
T2 sequence (P07333 20-972): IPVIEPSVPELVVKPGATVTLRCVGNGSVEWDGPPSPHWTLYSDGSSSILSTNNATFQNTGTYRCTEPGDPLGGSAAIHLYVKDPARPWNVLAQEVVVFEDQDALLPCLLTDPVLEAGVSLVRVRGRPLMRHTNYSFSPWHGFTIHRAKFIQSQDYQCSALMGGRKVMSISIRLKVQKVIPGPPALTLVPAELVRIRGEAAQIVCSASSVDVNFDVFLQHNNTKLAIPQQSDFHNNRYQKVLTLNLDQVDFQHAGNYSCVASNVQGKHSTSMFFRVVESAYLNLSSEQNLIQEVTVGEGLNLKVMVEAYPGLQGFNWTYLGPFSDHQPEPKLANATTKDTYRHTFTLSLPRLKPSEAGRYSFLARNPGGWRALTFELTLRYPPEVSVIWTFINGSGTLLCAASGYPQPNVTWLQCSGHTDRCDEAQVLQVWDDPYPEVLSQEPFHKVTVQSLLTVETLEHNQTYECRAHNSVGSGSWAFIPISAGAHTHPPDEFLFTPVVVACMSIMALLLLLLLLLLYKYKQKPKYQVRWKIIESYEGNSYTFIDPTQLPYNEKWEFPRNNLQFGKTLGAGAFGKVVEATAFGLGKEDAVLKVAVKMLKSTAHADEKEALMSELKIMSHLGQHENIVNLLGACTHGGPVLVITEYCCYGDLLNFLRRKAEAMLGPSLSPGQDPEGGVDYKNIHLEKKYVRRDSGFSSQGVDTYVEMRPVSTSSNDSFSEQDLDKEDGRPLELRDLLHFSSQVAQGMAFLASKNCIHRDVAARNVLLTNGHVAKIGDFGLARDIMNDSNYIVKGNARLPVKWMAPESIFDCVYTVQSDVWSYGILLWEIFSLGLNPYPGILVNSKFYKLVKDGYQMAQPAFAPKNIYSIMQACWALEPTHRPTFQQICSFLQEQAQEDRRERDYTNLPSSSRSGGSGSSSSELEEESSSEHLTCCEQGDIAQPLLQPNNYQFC

For `O=C(Nc1cccc2c1cnn2Cc1ccccc1)c1cnc2cc(OCC(O)CO)ccn12` (centres unmarked) [Example 91, N-(1-benzyl-1H-indazol-4-yl)-7-(2,3-dihydroxypropoxy)imidazo[1,2-a]pyridine-3-carboxamide], the IC50 was 10.9 nM against PDGFR beta [1], 22.2 nM on PDGFR beta [2], 4.4 nM on cFMS and 30.1 nM at c-KIT.
Turning to `Cc1nn(Cc2cccc(C(F)(F)F)n2)c2cccc(NC(=O)c3cnc4cc(OCCN5CCN(C(C)C)CC5)ccn34)c12` [Example 45, 7-(2-(4-isopropylpiperazin-1-yl)ethoxy)-N-(3-methyl-1-((6-(trifluoromethyl)pyridin-2-yl)methyl)-1H-indazol-4-yl)imidazo[1,2-a]pyridine-3-carboxamide], the 50% inhibitory concentration (IC50) against PDGFR beta [1] was found to be 113 nM; at PDGFR beta [2], 347 nM; on cFMS it was 13.4 nM; at c-KIT it was 166 nM.
Take `CCN1CCN(CCOc2ccn3c(C(=O)Nc4cccc5c4c(C)nn5Cc4cccc(C(C)C)n4)cnc3c2)CC1` [Example 2, 7-(2-(4-Ethylpiperazin-1-yl)ethoxy)-N-(1-((6-isopropylpyridin-2-yl)methyl)-3-methyl-1H-indazol-4-yl)imidazo[1,2-a]pyridine-3-carboxamide]: the IC50 came to 23.7 nM on PDGFR beta [1], 9.4 nM at PDGFR beta [2], 27.7 nM on cFMS and 41.1 nM on c-KIT.
With `CCN1CCN(CCOc2ccn3c(C(=O)Nc4cccc5c4c(C)nn5Cc4cccc(C5CC5)n4)cnc3c2)CC1` [Example 17, N-(1-((6-cyclopropylpyridin-2-yl)methyl)-3-methyl-1H-indazol-4-yl)-7-(2-(4-ethylpiperazin-1-yl)ethoxy)imidazo[1,2-a]pyridine-3-carboxamide], the IC50 turned out to be 313 nM against PDGFR beta [1], 85 nM at PDGFR beta [2], 11 nM on cFMS and 54.2 nM at c-KIT.
Take `Cc1nn(Cc2cccc(C(C)C)n2)c2cccc(NC(=O)c3cnc4cc(OCCN5CCN(C)CC5)ccn34)c12` [Example 66, N-(1-((6-isopropylpyridin-2-yl)methyl)-3-methyl-1H-indazol-4-yl)-7-(2-(4-methylpiperazin-1-yl)ethoxy)imidazo[1,2-a]pyridine-3-carboxamide]: the IC50 against PDGFR beta [1] is 4.8 nM; on PDGFR beta [2], 18.3 nM; at cFMS, 10.2 nM; at c-KIT, 30.7 nM.
